In US20260355330A1, “CELL PENETRATING PEPTIDES AND USES THEREOF” (VECTIOPEP OÜ, priority 2022, published 2026):
Entries after “also recorded” stand apart in the source; their conditions may differ.

What was measured:
[1] = in words; previously reported; cited from earlier work
[2] = test system: CHO-K1 cells; experiment: Delivery of reporter mRNA with CPPs in cell culture (luciferase luminescence 24 h post-transfection); format: cell-based
In short: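 CHO-K1 cells (10,000/well) transfected in 10% FBS DMEM with 0.1 μg firefly luciferase mRNA complexed with CPP at 3:1 charge ratio (peptide excess). Luminescence read in lysates 24 h later, normalised to BCA total protein (RLU/mg).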

[3] = test system: CHO-K1 cells; experiment: Comparison of reporter levels in cells post-transfection of pDNA or mRNA delivered by CPPs; format: cell-based; settings: in words, FIG. 2
Description: FIG. 2: Comparison of reporter levels in cells post-transfection of pDNA or mRNA delivered by CPPs (P14, NF55 and NF71; relative light units normalised to total protein in the cell lysate (RLU/mg)). Naked mRNA and untreated cells (UT) were used as controls.
Adherent CHO-K1 cells were grown in Dulbecco's Modified Eagle's Medium (DMEM), which were supplemented with 0.1 mM non-essential amino acids, 1.0 mM sodium pyruvate, 100 U/ml penicillin, and […]. For complete media, 10% (final) fetal bovine serum (FBS) was added. Cells were maintained in a humidified incubator at 37 °C, 5% CO2. Cell viability and confluence was assessed daily and the cell density was reduced regularly. For cell counting, we used the CytoSMART cell counter accompanied by 0.4% trypan blue staining prior measurement. The multi-well plates with cell cultures used for experiments were incubated in a humidified incubator at 37 °C, 5% CO2.
For in vitro experiments 0.1 μg of nucleic acid (plasmid DNA (pDNA) or mRNA) was used per 96-well plate well. For CPP/NA complex formation, the diluted NA was mixed with CPP in water. Complexes were formed based on the theoretical charge ratio (CR) of positive charges from the peptide in excess to the negative charges from nucleic acid backbone, at charge ratio 3:1 with peptide in excess. […]
For reporter luminescence (expressed from firefly luciferase encoding mRNA or plasmid pDNA) assessment in adherent cell culture, 10,000 cells per 96-well plate well were seeded in 100 μl of media one day prior to transfection. […]
24 hours post-transfection, the media was aspirated, cells were washed with 1×PBS, and 30 μl of lysis buffer (0.1% Triton X100 in 1×PBS) was added. […] From the lysate, 20 μl was transferred to a black frame white well 96-well plate for luminescence measurement after addition of substrate luciferin (PerkinElmer) in buffer. The luminescence signal was detected with GloMax® 96 microplate luminometer equipped with GloMax® 1.9.2 software (Promega). […]

[4] = test system: liver, spleen, lung, kidney, heart and thymus of Balb/c mice; experiment: Biodistribution of reporter levels post-transfection of mRNA or pDNA with CPPs in vivo (tissue homogenate)
Description: FIG. 3: Biodistribution of reporter levels post-transfection of mRNA or pDNA with NFs or PFs CPPs in vivo. Reporter gene product levels were evaluated from the whole tissue homogenates collected post mortem. Results are shown as the fold change to mRNA or pDNA treated mice.
The transfection complexes (CPP/mRNA) were formed using 10 μg of mRNA mixed with each peptide at indicated charge ratios (CRs) in MQ water in a final volume of 100 μl. CRs were calculated theoretically and account for both the positive charges of the peptide and negative charges of the nucleic acid. The transfection complexes (CPP/mRNA and CPP/pDNA) were formed using 50 μg of mRNA mixed with each peptide at indicated charge ratios (CRs) in MQ water in a final volume of 168 μl. The complexes were incubated for 30 minutes at room temperature and then mixed with equal volume of 10% glucose (resulting in a final solution of 5% glucose in a total volume of 200 μl for 10 μg dose groups and 336 μl for 50 μg dose groups) and immediately injected intravenously via the tail vein.
The reporter gene (luciferase) expression levels were evaluated from the tissue homogenate post mortem 16-24 h after single injection.
In order to determine to which organs in vivo mRNAs may be delivered to with NickFect or PepFect CPPs, mRNA complexes with NF55, NF71 and PF14 were formed and injected through the tail vein of Balb/c mice (FIG. 3A). The organs were harvested 24 hours after the single injection and reporter signal was measured from whole tissue homogenates. The biodistribution of reporter levels was measured in liver, spleen, lung, kidney, heart and thymus.
In order to compare the biodistribution profiles between harvested organs when using either mRNA or pDNA as cargo, NF424 was used to transfect these 2 types of nucleic acids in vivo (FIG. 3B and Table 4).

[5] = in words; previously reported; cited from earlier work; remark: listed apart in the source
[6] = mRNA delivery, i.v. tail vein, 24 h after single injection, FIG. 3: fold change to mRNA or pDNA treated mice

In the case of “NF71: SEQ ID NO: 14; HHYHHGO*ILLKALKALAKAIL; control/comparator construct”, the miRNA delivery efficiency [1] is listed as “very efficient for siRNA and miRNA delivery; also recorded: very efficient for siRNA and miRNA transfections; also recorded: the most efficient in vivo”, the “Average RLU/mg (reporter levels post-transfection of mRNA)” value ([2]; firefly luciferase mRNA, 0.1 μg per well, charge ratio 3:1, serum containing media, 24 h, RLU normalised to total protein in lysate) is listed as 3 505 987 RLU/mg and the “Efficiency of mRNA transfection/delivery” value ([2]; in words, FIG. 1 / Table 2, cell culture) is listed as “not efficient for mRNA delivery”. For the same substance, the “Efficiency of mRNA transfection (parallel pDNA/mRNA comparison)” value ([3]; mRNA cargo) was “not effective tools for mRNA transfection/delivery; also recorded: not an efficient delivery vector for mRNA”, the “Efficiency of pDNA transfection (parallel pDNA/mRNA comparison)” value ([3]; pDNA cargo) was “very efficient transfection reagents for pDNA delivery” and the “Organ distribution of mRNA delivery” value ([4]; in words, mRNA cargo) was “delivered mRNA mostly into the spleen, with very low transfection levels seen in other organs”. The “Reporter level, Liver” value [4, 6] was 8, the “Reporter level, Lung” value [4, 6] was 6 and the “Reporter level, Spleen” value [4, 6] was 124. For the same substance, the siRNA delivery efficiency [5] was “very efficient for siRNA and miRNA delivery; also recorded: very efficient for siRNA and miRNA transfections; also recorded: the most efficient, even more efficient than NF55”.
